From patent US20260248787A9, “MEDICAMENT FOR TREATING CANCER COMPRISING OPTICALLY ACTIVE AZABICYCLO RING DERIVATIVE” (Sumitomo Pharma Co., Ltd., priority 2023, published 2026)

Experiment: Phase 1/2 first-in-human clinical study, safety evaluation (DLT, TEAE, SAE)
Method: Arm A: Patients without azole antifungal treatment within 7 days (or 21 days for isavuconazole) of first dose of the present compound
Arm B: Patients receiving posaconazole, voriconazole, or fluconazole antifungal prophylaxis at enrollment
The safety of each dose level also was evaluated by the SRC, which was comprised of all investigators participating in the study and selected Sponsor study team members. The dose recommended by the BLRM method was treated as guidance and was integrated with a clinical assessment of toxicity information and review of other available data, including safety, PK, pharmacodynamic, and laboratory data.
When the Dose Limiting Toxicity (DLT) evaluation for each cohort was completed, the SRC determined a next dose level based on the DLT and other available data, including safety, PK, pharmacodynamic, and laboratory data with reference to the Bayesian Logistic Regression Model (BLRM) recommendation.
Dose escalation decisions were made after all patients in a dose level cohort have at least completed Cycle 1. All available data were presented along with the BLRM predictions for toxicity probabilities at the potential next dose levels. The SRC then determined the dose(s) for the next cohort(s).

C=C1C[C@@H]2CC[C@H]1[C@@H](C(=O)N1CCC3(CC1)CN(c1ncncc1Oc1ccc(F)cc1C(=O)N(C(C)C)C(C)C)C3)N2 [the present compound, 5-fluoro-2-[(4-{7-[(1S,3S,4R)-5-methylidene-2-azabicyclo[2.2.2]octane-3-carbonyl]-2,7-diazaspiro[3.5]nonan-2-yl}pyrimidin-5-yl)oxy]-N,N-di(propan-2-yl)benzamide]
20 (35.1%) n (%): Non-hematological TEAE regardless of causality: Vomiting (N=57, Any Grade)
8 (14.0%) n (%): Non-hematological TEAE regardless of causality: Back pain (N=57, Any Grade) | Non-hematological TEAE regardless of causality: Dizziness (N=57, Any Grade) | Non-hematological TEAE regardless of causality: Hypertension (N=57, Any Grade) | Non-hematological TEAE regardless of causality: Pain in extremity (N=57, Any Grade) | Hematological TEAE regardless of causality: Anaemia (N=57, Grade ≥3) | Hematological TEAE regardless of causality: Platelet count decreased (N=57, Grade ≥3)
4 (40.0) n (%): TEAE: Infections and Infestations (Arm B N=10, ≥Grade 3) | TEAE: Metabolism and nutrition disorders (Arm B N=10, ≥Grade 3)
33 (57.9%) n (%): Non-hematological laboratory change regardless of causality: Hypocalcemia (N=57, Any Grade)
9 (15.8%) n (%): Hematological TEAE regardless of causality: Anaemia (N=57, Any Grade) | Hematological TEAE regardless of causality: Platelet count decreased (N=57, Any Grade) | Non-hematological TEAE regardless of causality: Muscular weakness (N=57, Any Grade) | Non-hematological TEAE regardless of causality: Oedema peripheral (N=57, Any Grade) | Non-hematological TEAE regardless of causality: Pyrexia (N=57, Any Grade)
34 (7.0%) n (%): Non-hematological laboratory change regardless of causality: Hypokalemia (N=57, Any Grade)
7 (12.3%) n (%): Hematological TEAE regardless of causality: Neutrophil count decreased (N=57, Any Grade) | Non-hematological TEAE regardless of causality: Cough (N=57, Any Grade) | Non-hematological TEAE regardless of causality: Electrocardiogram QT prolonged (N=57, Any Grade) | Non-hematological TEAE regardless of causality: Hypotension (N=57, Any Grade) | Treatment related adverse event: Vomiting (N=57, Any Grade)
15 (26.3%) n (%): Non-hematological TEAE regardless of causality: Decreased appetite (N=57, Any Grade) | Non-hematological TEAE regardless of causality: Headache (N=57, Any Grade)
6 (10.5%) n (%): Non-hematological TEAE regardless of causality: Arthralgia (N=57, Any Grade) | Non-hematological TEAE regardless of causality: COVID-19 (N=57, Any Grade) | Non-hematological TEAE regardless of causality: Dysgeusia (N=57, Any Grade) | Non-hematological TEAE regardless of causality: Haemorrhage intracranial (N=57, Any Grade) | Non-hematological TEAE regardless of causality: Myalgia (N=57, Any Grade) | Hematological TEAE regardless of causality: Neutrophil count decreased (N=57, Grade ≥3)
13 (22.8%) n (%): Non-hematological TEAE regardless of causality: Dyspnoea (N=57, Any Grade)
45 (7.9%) n (%): Non-hematological laboratory change regardless of causality: Hypertriglyceridemia (N=57, Any Grade)
3 (30.0)*^3 n (%): TEAE: Hypokalaemia (Arm B N=10, ≥Grade 3 (not related to the present compound))
26 (4.6%) n (%): Non-hematological laboratory change regardless of causality: Hypomagnesemia (N=57, Any Grade)
19 (33.3%) n (%): Non-hematological laboratory change regardless of causality: Hypophosphatemia (N=57, Any Grade)
1 (10.0) n (%): TEAE: Hypertriglyceridaemia (Arm B N=10, ≥Grade 3) | TEAE: Hypocalcaemia (Arm B N=10, ≥Grade 3) | TEAE: Investigations (Arm B N=10, ≥Grade 3) | TEAE: Musculoskeletal and connective tissue disorders (Arm B N=10, ≥Grade 3) | related TEAE: Aspartate aminotransferase increased (Arm B N=10, ≥Grade 3) | related TEAE: Blood and lymphatic system disorders (Arm B N=10, ≥Grade 3) | related TEAE: Hypertriglyceridaemia (Arm B N=10, ≥Grade 3) | related TEAE: Investigations (Arm B N=10, ≥Grade 3) | related TEAE: Leukocytosis (Arm B N=10, ≥Grade 3) | related TEAE: Metabolism and nutrition disorders (Arm B N=10, ≥Grade 3)
28 (49.1%) n (%): Non-hematological laboratory change regardless of causality: ALT increase (N=57, Any Grade)
32 (56.1%) n (%): Non-hematological laboratory change regardless of causality: Hyponatremia (N=57, Any Grade)
4 (7.0%) n (%): Hematological TEAE regardless of causality: Leukocytosis (N=57, Grade ≥3)
12 (21.1%) n (%): Hematological TEAE regardless of causality: Febrile neutropenia (N=57, Any Grade) | Hematological TEAE regardless of causality: Febrile neutropenia (N=57, Grade ≥3)
0 n (%): TEAE: Dyspnoea (Arm B N=10, ≥Grade 3) | TEAE: Epistaxis (Arm B N=10, ≥Grade 3) | TEAE: Fatigue (Arm B N=10, ≥Grade 3) | TEAE: Gastrointestinal disorders (Arm B N=10, ≥Grade 3) | TEAE: Headache (Arm B N=10, ≥Grade 3) | TEAE: Hemorrhoids (Arm B N=10, ≥Grade 3) | TEAE: Hypoalbuminaemia (Arm B N=10, ≥Grade 3) | TEAE: Hypomagnaesemia (Arm B N=10, ≥Grade 3) | TEAE: Hyponatraemia (Arm B N=10, ≥Grade 3) | TEAE: Nausea (Arm B N=10, ≥Grade 3) | TEAE: Nervous System Disorders (Arm B N=10, ≥Grade 3) | TEAE: Oedema peripheral (Arm B N=10, ≥Grade 3) | TEAE: Pain in extremity (Arm B N=10, ≥Grade 3) | TEAE: Platelet count decreased (Arm B N=10, ≥Grade 3) | TEAE: Pruritus (Arm B N=10, ≥Grade 3) | TEAE: Pyrexia (Arm B N=10, ≥Grade 3) | TEAE: Respiratory, thoracic and mediastinal disorders (Arm B N=10, ≥Grade 3) | TEAE: Skin and subcutaneous tissue disorders (Arm B N=10, ≥Grade 3) | TEAE: Stomatitis (Arm B N=10, ≥Grade 3) | TEAE: Vomiting (Arm B N=10, ≥Grade 3) | related TEAE: Decreased appetite (Arm B N=10, ≥Grade 3) | related TEAE: Differentiation syndrome (Arm B N=10, ≥Grade 3) | related TEAE: Gastrointestinal disorders (Arm B N=10, ≥Grade 3) | related TEAE: General disorders and administration site conditions (Arm B N=10, ≥Grade 3) | related TEAE: Headache (Arm B N=10, ≥Grade 3) | related TEAE: Hyperuricaemia (Arm B N=10, ≥Grade 3) | related TEAE: Increased appetite (Arm B N=10, ≥Grade 3) | related TEAE: Nausea (Arm B N=10, ≥Grade 3) | related TEAE: Neoplasms benign, malignant and unspecified (incl cysts and polyps) (Arm B N=10, ≥Grade 3) | related TEAE: Nervous system disorders (Arm B N=10, ≥Grade 3) | related TEAE: Thirst (Arm B N=10, ≥Grade 3) | related TEAE: Vomiting (Arm B N=10, ≥Grade 3)
11 (19.3%) n (%): Non-hematological TEAE regardless of causality: Constipation (N=57, Any Grade) | Non-hematological TEAE regardless of causality: Sepsis (N=57, Any Grade) | Non-hematological TEAE regardless of causality: Stomatitis (N=57, Any Grade)
23 (40.4%) n (%): Non-hematological TEAE regardless of causality: Nausea (N=57, Any Grade) | Non-hematological laboratory change regardless of causality: AST increase (N=57, Any Grade)
2 (20.0) n (%): TEAE: Disease progression (Arm B N=10, ≥Grade 3) | TEAE: General disorders and administration site disorders (Arm B N=10, ≥Grade 3) | TEAE: Pneumonia (Arm B N=10, ≥Grade 3) | TEAE: Sepsis (Arm B N=10, ≥Grade 3)
10 (17.5%) n (%): Hematological TEAE regardless of causality: Leukocytosis (N=57, Any Grade) | Non-hematological TEAE regardless of causality: Diarrhoea (N=57, Any Grade) | Non-hematological TEAE regardless of causality: Epistaxis (N=57, Any Grade) | Non-hematological TEAE regardless of causality: Fatigue (N=57, Any Grade) | Non-hematological TEAE regardless of causality: Pneumonia (N=57, Any Grade) | Treatment related adverse event: Nausea (N=57, Any Grade)
1 (1.8%) n (%): Non-hematological TEAE regardless of causality: Arthralgia (N=57, Grade ≥3) | Non-hematological TEAE regardless of causality: Back pain (N=57, Grade ≥3)
